The text below walks through data of patent US20230293519A1, “INTEGRIN INHIBITORS AND USES THEREOF IN COMBINATION WITH OTHER AGENTS” (Pliant Therapeutics, Inc., priority 2021, published 2023).

Molecules are shown by their SMILES.

Broadly, the IC50 is the concentration at which inhibition is half-maximal.

In the first test the target is recombinant human integrin αvβ6 (Homo sapiens (Human), UniProt P06756+P18564). As to the kind of experiment: Solid phase integrin αvβ6 binding assay. The conditions noted are these: IC50 presented in four ranges; read-out: αvβ6 Inhibition IC50 (nM) - range. The method, then: (§1) Microplates were coated with recombinant human integrin αvβ6 (2 µg/mL) in PBS (100 µL/well 25° C., overnight). The coating solution was removed, washed with wash buffer (0.05% Tween 20; 0.5 mM MnCl2; in 1x TBS). The plate was blocked with 200 µL/well of Block Buffer (1% BSA; 5% sucrose; 0.5 mM MnCl2; in 1x TBS) at 37° C. for 2 h. Dilutions of testing compounds and recombinant TGFβ1 LAP (0.67 µg/mL) in binding buffer (0.05% BSA; 2.5% sucrose; 0.5 mM MnCl2; in 1x TBS) were added. The plate was incubated for 2 hours at 25° C., washed, and incubated for 1 hour with Biotin-Anti-hLAP. Bound antibody was detected by peroxidase-conjugated streptavidin. The IC50 values for testing compounds were calculated by a four-parameter logistic regression.
Chain of recombinant human integrin αvβ6 (P06756 31-889): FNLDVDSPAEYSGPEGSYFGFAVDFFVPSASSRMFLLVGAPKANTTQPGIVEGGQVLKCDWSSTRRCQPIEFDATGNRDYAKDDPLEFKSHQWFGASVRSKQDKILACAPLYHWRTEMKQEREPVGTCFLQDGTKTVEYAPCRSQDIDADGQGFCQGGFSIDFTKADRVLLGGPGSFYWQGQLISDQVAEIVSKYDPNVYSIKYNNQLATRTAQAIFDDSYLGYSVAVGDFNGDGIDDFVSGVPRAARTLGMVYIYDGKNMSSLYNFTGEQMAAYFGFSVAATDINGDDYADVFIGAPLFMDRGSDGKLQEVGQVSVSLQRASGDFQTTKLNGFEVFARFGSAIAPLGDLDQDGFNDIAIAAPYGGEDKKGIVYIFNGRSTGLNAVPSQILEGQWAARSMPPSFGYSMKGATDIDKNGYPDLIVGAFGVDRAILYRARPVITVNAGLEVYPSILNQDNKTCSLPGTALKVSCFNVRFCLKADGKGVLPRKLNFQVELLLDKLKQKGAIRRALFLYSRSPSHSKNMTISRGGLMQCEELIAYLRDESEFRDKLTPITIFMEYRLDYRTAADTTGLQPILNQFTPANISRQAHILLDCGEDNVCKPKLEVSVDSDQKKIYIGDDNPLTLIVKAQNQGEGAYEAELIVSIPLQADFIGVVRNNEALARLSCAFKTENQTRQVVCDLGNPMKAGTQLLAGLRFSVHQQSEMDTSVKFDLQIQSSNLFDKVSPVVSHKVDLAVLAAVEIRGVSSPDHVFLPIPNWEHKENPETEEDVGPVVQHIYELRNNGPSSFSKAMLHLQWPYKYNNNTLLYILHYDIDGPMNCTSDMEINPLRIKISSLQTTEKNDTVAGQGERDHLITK
Chain of recombinant human integrin αvβ6 (P06756 890-992 partner): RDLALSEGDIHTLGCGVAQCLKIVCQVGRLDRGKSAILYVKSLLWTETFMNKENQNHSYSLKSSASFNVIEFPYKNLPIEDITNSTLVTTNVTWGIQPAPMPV
Chain of recombinant human integrin αvβ6 (P18564 22-707): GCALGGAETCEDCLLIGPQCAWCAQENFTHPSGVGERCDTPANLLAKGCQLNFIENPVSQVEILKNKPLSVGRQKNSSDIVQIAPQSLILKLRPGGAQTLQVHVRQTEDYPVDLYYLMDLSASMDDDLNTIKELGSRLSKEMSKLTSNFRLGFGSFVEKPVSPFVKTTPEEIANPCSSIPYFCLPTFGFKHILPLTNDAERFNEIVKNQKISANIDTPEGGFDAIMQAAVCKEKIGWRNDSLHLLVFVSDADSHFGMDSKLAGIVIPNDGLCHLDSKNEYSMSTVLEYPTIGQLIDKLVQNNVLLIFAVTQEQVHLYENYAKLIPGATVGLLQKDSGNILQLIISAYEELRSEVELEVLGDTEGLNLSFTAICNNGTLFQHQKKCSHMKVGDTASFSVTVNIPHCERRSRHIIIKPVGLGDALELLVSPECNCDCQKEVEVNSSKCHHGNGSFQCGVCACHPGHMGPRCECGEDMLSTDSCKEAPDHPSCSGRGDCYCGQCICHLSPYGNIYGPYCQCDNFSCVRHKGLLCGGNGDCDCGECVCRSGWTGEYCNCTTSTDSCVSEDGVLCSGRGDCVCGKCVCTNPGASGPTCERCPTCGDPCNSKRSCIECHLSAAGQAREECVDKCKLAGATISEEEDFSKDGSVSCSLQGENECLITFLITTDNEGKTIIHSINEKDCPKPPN
The compounds tested were compound samples prepared according to procedures described in the Synthetic Examples section, with the stereochemical purity as indicated in the Examples.
as §1, with “A third series of exemplary compounds was selected for testing in the solid phase integrin αvβ6 binding assay. The compounds tested were compound samples prepared according to procedures described in the Synthetic Examples section, with the stereochemical purity as indicated in the Examples. As in Example B1, microplates” for “Microplates”
`O=C(O)[C@H](CCN(CCCCc1ccc2c(n1)NCCC2)CC(F)F)Nc1ccncn1` [compound 120]: the IC50 was > 1000 nM. Same read-out and setting: to `O=C(O)[C@H](CCN(CCCCc1ccc2c(n1)NCCC2)CC(F)F)Nc1ncc(F)cn1` [compound 121] belongs > 1000 nM; to `Cc1cc(N[C@@H](CCN(CCCCc2ccc3c(n2)NCCC3)CC(F)F)C(=O)O)nc(-c2ccncc2)n1` [compound 122], 250 to 1000 nM. In the case of `Cn1ncc2c(N[C@@H](CCN(CCCCc3ccc4c(n3)NCCC4)CCOc3ccc(F)cc3)C(=O)O)ncnc21` [compound 123], the IC50 was < 50 nM.

In the case of `CO[C@H](C)CN(CCCCc1ccc2c(n1)NCCC2)CC[C@H](Nc1ncc(C2CC2)cn1)C(=O)O` [compound 124], the IC50 is < 50 nM.

As to `CS(=O)(=O)CCN(CCCCc1ccc2c(n1)NCCC2)CC[C@H](Nc1ncnc2[nH]ncc12)C(=O)O` [compound 125], the IC50 was 50 to 250 nM. Still for that read-out and setting: then `CS(=O)(=O)CCN(CCCCc1ccc2c(n1)NCCC2)CC[C@H](Nc1cc(-n2cccn2)ncn1)C(=O)O` [compound 126], with > 1000 nM; and `CO[C@H](C)CN(CCCCc1ccc2c(n1)NCCC2)CC[C@H](Nc1ccncn1)C(=O)O` [compound 127], with 250 to 1000 nM. Same read-out and setting: then `CO[C@H](C)CN(CCCCc1ccc2c(n1)NCCC2)CC[C@H](Nc1cc(-c2ccccc2)ncn1)C(=O)O` [compound 128], with > 1000 nM; and `O=C(O)[C@H](CCN(CCCCc1ccc2c(n1)NCCC2)CC1CCO1)Nc1ncnc2ccccc12` (some centres unmarked) [compound 129], with < 50 nM. On the same count and under the same terms, then `O=C(O)[C@H](CCN(CCCCc1ccc2c(n1)NCCC2)CC(CO)CO)Nc1ncnc2ccccc12` [compound 130], with < 50 nM; and `O=C(O)[C@H](CCN(CCCCc1ccc2c(n1)NCCC2)CCC(F)F)Nc1ncc(Br)cn1` [compound 131], with 50 to 250 nM. As for `O=C(O)[C@H](CCN(CCCCc1ccc2c(n1)NCCC2)CCC(F)F)Nc1ncc(C(F)(F)F)cn1` [compound 132], the IC50 is 50 to 250 nM. As for `Cn1ncc2c(N[C@@H](CCN(CCCCc3ccc4c(n3)NCCC4)CCC(F)F)C(=O)O)ncnc21` [compound 133], the IC50 fell in the range of 50 to 250 nM. On the same count and under the same terms, then `O=C(O)[C@H](CCN(CCCCc1ccc2c(n1)NCCC2)CCC(F)F)Nc1ccnc(C(F)(F)F)n1` [compound 134], with 50 to 250 nM; and `O=C(O)[C@H](CCN(CCCCc1ccc2c(n1)NCCC2)CCC(F)F)Nc1ccnc(C2CC2)n1` [compound 135], with 50 to 250 nM; and `Cn1ncc2c(N[C@@H](CCN(CCCF)CCCCc3ccc4c(n3)NCCC4)C(=O)O)ncnc21` [compound 136], with < 50 nM. Consider `O=C(O)[C@H](CCN(CCCF)CCCCc1ccc2c(n1)NCCC2)Nc1ncc(C(F)(F)F)cn1` [compound 137], for which the IC50 is < 50 nM. On the same count and under the same terms, then `N#Cc1cnc(N[C@@H](CCN(CCCCc2ccc3c(n2)NCCC3)CCOc2ccc(F)cc2)C(=O)O)nc1` [compound 138], with < 50 nM; and `O=C(O)[C@H](CCN(CCCCc1ccc2c(n1)NCCC2)CCOc1ccc(F)cc1)Nc1ncc(C(F)(F)F)cn1` [compound 139], with < 50 nM; and `CN(C)C(=O)CN(CCCCc1ccc2c(n1)NCCC2)CC[C@H](Nc1ncnc2c1cnn2C)C(=O)O` [compound 140], with < 50 nM. Same read-out and setting: to `CN(C)C(=O)CN(CCCCc1ccc2c(n1)NCCC2)CC[C@H](Nc1ncc(C(F)(F)F)cn1)C(=O)O` [compound 141] belongs 50 to 250 nM; to `O=C(O)[C@H](CCN(CCCCc1ccc2c(n1)NCCC2)CC(F)F)Nc1cc(-c2ccccc2)ncn1` [compound 142], > 1000 nM; to `O=C(O)[C@H](CCN(CCCCc1ccc2c(n1)NCCC2)CCOc1ccc(F)cc1)Nc1ncnc2[nH]ncc12` [compound 143], 50 to 250 nM. For `O=C(O)[C@H](CCN(CCCCc1ccc2c(n1)NCCC2)CCOc1ccc(F)cc1)Nc1ncc(Br)cn1` [compound 144], the IC50 lay in the range of 50 to 250 nM. Same read-out and setting: to `CN(C)C(=O)CN(CCCCc1ccc2c(n1)NCCC2)CC[C@H](Nc1ccnc(C(F)(F)F)n1)C(=O)O` [compound 145] belongs < 50 nM. In the case of `O=C(O)[C@H](CCN(CCCCc1ccc2c(n1)NCCC2)CC(F)F)Nc1ncc(C2CC2)cn1` [compound 146], the IC50 was > 1000 nM. Still for that read-out and setting: to `O=C(O)[C@H](CCN(CCCCc1ccc2c(n1)NCCC2)CC1(F)COC1)Nc1ncnc2ccccc12` [compound 147] belongs 50 to 250 nM.

A further test deals with Type I Collagen gene Col1a1 expression. As to the kind of experiment: Precision cut lung slices of mice under acute bleomycin exposure. The format is cell-based, mouse. The following applies: slices cultured 3 days; integrin inhibitors at IC50, pan-αv and ALK5 inhibitors at 10x IC50. The protocol: Mice (C57BL/6) were administered 3 U/kg of bleomycin (Teva Pharmaceuticals; North Wales, PA) on day 0 via oropharyngeal aspiration while under anesthesia. On day 14, precision cut lung slices were obtained. Following euthanization, 2% low gelling temp agarose was injected into the mouse lungs via the trachea. […] The lobes were then subjected to precision slicing to obtain samples for culture using a microtome (Compresstome VF-300-0Z, Precisionary; Greenville, NC). Individual slices were distributed in a multiwell culture plate and cultured for 3 days under control (DMSO) and test compound conditions.
`CC(C)(C)c1cc(Br)cc(C(CC(=O)O)NC(=O)CNC(=O)c2cc(O)cc(NC3=NCC(O)CN3)c2)c1` [second pan-αv small molecule inhibitor, (3S)-N-[3-hydroxy-5-[(1,4,5,6-tetrahydro-5-hydroxy-2-pyrimidinyl)amino]benzoyl]glycyl-3-[3-bromo-5-(1,1-dimethylethyl)phenyl]-(3-alanine]: the “Type I Collagen gene Col1a1 expression vs DMSO control” value is “reduced”.
